Reference: patent US20240279304A1, “DSG2 COMPOSITIONS AND METHODS” (Arvada Therapeutics, Inc., priority 2021, published 2024)

System: anti-DSG2 antibodies in sera of ARVC patients
Test: Electrochemical immunoassay, blocking of ARVC patient sera binding to DSG2 extracellular domain
Parameters: species or system human
Details: fusion polypeptides 5 μg/mL; patient sera 10% (v/v); FIG. 5
Method: DSG2 fusion polypeptides were investigated for the ability to block the binding of anti-DSG2 antibodies in sera of ARVC patients to the DSG2 extracellular domain in an electrochemical immunoassay. The fusion polypeptides were added to a final concentration of 5 μg/mL and patient sera were used at a final concentration of 10% (v/v). The results are shown in the series of bar charts in FIG. 5, where the numbers 961, 965, 978, 986 and 964 indicate ARVC patient serum samples.
In FIG. 5, the first data series from the left is for DSG2FP #1 (described above as amino acids 49-608 of SEQ ID NO:30; Linker (IEGRMD (SEQ ID NO: 28)); amino acids 100-330 of IgG1 (SEQ ID NO: 4). The second data series from the left is for DSG2(50-602)-6×His, which is a fusion polypeptide of DSG2 amino acids 50-602 of SEQ ID NO: 1 (complete extracellular domain) to a hexahistidine peptide tag. The third data series from the left is for a combination of fusion polypeptides which includes EC1(50-155)-6×His, a fusion of DSG2 amino acids 50-155 of SEQ ID NO: 1 (EC1) to a hexahistidine peptide tag and EC2(151-268)-6×His, a fusion of DSG2 amino acids 151-268 of SEQ ID NO: 1 (EC2) to a hexahistidine peptide tag. […] It is likely that other affinity tags may be determined to be useful in alternative embodiments of DSG2 polypeptides, with examples including, but not limited to CBP, MBP, streptavidin and GST, for example. […]

With “DSG2FP#1: R&D Systems DSG2 extracellular domain (49-608 of SEQ ID NO: 30); linker IEGRMD; amino acids 100-330 of IgG1” the “blocking activity (inhibition; 100% = complete blocking)” value was “best blocking activity”.
